Reference: US8609086B2, “Preparation created from an in vitro culture of dedifferentiated, non-elicited cells of the Argania tree, use thereof for treating skin ageing, inflammation and scarring, and production thereof” (Pierre Fabre Dermo-Cosmetique, priority 2010, dated 2013)

Experiment: Anti-oxidizing activity by chemiluminescence (ACL kit), trolox equivalent
Format: biochemical
Details: anti-oxidizing power in trolox equivalent, trapping of superoxide anions
Description: This method generates free radicals (superoxide radical O2^o−) by a photochemical signal. The intensity of oxidation is 1000 times greater than that obtained under normal conditions. Detection is done by chemiluminescence and is used to evaluate lipo or hydrosoluble anti-oxidizing extracts or molecules. The results are expressed as an equivalent quantity of vitamin C or Trolox (6-Hydroxy-2,5,7,8-tetramethylchroman-2-carboxylic acid). The sensitivity is of the order of one nanomole.
The analysis of the results depends on two criteria, namely the shape of the curve (integration) and the numerical value given by the software in nanomoles. (Igor Popov and Gudrun Lewin. Methods in enzymology vol 300. 437-456; Maibach I Howard and coll. Journal of Cosmetic Dermatology Vol 7(2) 96-100 (2008)).
The results will be expressed in μg of sample necessary to obtain an activity equivalent to the activity detected for 1 μg of standard (=trolox). (ACL Kit).
The anti-oxidizing activity studied in this test represents the ability to specifically trap superoxide anions by chemiluminescence.

Structure (SMILES) | ACL μg of sample for 1 μg of Trolox
Cc1c(C)c2c(c(C)c1O)CCC(C)(C(=O)O)O2 (centres unmarked) [Trolox, 6-Hydroxy-2,5,7,8-tetramethylchroman-2-carboxylic acid] | 1 μg of sample for 1 μg of Trolox
COC1=C(OC)C(=O)C(C/C=C(\C)CC/C=C(\C)CC/C=C(\C)CC/C=C(\C)CC/C=C(\C)CC/C=C(\C)CC/C=C(\C)CC/C=C(\C)CC/C=C(\C)CCC=C(C)C)=C(C)C1=O [Coenzyme 10] | 272 μg of sample for 1 μg of Trolox
